# Active and inactive are the calls of the source. The rule behind the calls is not given here.
# Legend:
# [1] = biological target: T1, von Hippel-Lindau disease tumor suppressor/Son of sevenless homolog 1 (Homo sapiens, UniProt Q07889+P40337); assay: Protac activity at VHL/SOS1 in human NCI-H358 cells assessed as SOS1 protein degradation at 0.1 uM incubated for 24 hr by Western blot analysis relative to control; format: cell-based
# Target sequence in this assay (P40337 whole entry, looked up): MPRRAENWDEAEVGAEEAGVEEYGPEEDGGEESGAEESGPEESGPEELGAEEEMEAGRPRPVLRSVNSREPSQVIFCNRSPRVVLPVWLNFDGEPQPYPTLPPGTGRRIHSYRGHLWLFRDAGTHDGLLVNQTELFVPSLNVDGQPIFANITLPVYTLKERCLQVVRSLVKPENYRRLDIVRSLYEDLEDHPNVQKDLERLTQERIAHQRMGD
# Target sequence in this assay (Q07889 whole entry, looked up): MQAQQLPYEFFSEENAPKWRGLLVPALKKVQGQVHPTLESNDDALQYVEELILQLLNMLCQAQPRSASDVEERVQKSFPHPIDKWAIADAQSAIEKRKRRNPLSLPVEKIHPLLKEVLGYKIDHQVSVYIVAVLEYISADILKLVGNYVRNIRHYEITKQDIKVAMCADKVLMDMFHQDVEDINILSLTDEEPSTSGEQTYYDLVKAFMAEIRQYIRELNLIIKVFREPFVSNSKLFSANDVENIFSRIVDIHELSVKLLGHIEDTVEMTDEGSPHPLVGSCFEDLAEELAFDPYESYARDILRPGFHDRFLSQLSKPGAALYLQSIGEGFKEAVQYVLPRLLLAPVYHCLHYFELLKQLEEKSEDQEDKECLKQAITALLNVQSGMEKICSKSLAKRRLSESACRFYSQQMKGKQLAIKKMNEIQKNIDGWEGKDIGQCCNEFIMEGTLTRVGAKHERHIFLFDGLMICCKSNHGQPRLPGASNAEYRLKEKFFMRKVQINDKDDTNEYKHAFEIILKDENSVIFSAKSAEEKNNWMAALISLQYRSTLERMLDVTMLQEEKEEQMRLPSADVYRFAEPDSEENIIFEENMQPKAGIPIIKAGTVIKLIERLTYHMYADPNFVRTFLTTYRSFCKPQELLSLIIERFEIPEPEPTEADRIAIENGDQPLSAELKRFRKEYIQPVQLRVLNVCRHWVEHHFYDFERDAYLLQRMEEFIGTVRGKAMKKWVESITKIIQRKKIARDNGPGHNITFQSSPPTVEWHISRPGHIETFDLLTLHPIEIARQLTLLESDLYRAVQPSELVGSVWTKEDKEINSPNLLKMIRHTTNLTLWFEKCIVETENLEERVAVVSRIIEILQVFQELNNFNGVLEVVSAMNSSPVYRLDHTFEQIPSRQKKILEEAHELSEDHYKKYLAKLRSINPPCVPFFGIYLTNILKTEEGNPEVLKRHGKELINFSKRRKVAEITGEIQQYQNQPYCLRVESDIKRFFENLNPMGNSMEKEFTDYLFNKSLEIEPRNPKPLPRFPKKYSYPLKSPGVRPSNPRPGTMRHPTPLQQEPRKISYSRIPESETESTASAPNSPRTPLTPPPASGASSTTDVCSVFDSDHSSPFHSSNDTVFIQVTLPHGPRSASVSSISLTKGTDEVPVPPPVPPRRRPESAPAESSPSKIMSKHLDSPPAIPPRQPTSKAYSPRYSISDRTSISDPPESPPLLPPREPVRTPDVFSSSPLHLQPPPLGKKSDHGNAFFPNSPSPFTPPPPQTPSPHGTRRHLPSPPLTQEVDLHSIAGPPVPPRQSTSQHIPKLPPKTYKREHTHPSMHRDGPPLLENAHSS
# [2] = biological target: T1, von Hippel-Lindau disease tumor suppressor/Son of sevenless homolog 1; assay: Protac activity at VHL/SOS1 in human NCI-H358 cells assessed as SOS1 protein degradation at 1 uM incubated for 24 hr by Western blot analysis relative to control; format: cell-based
# Target sequence in this assay (P40337 whole entry, looked up): as the sequence (P40337 whole entry, looked up) above
# Target sequence in this assay (Q07889 whole entry, looked up): as the sequence (Q07889 whole entry, looked up) above
# [3] = biological target: T1, von Hippel-Lindau disease tumor suppressor/Son of sevenless homolog 1; assay: Protac activity at VHL/SOS1 in human NCI-H358 cells assessed as SOS1 protein degradation incubated for 24 hr by Western blot analysis; format: cell-based
# Target sequence in this assay (Q07889 whole entry): as the sequence (Q07889 whole entry, looked up) above
# Target sequence in this assay (P40337 whole entry): as the sequence (P40337 whole entry, looked up) above
# NCI-H358 = assay: Effect of compound on human NCI-H358 cells assessed as increase in phophorylated ERK level incubated for 24 hr by Western blot analysis; format: functional, cell-based
Compound,Activity [1],Activity [2],DC50 [3],Activity (NCI-H358)
Cc1cc(Cn2c(N3CC4(CNC4)C3)nc3c(N4CCN(CCCCCCCCCC(=O)N[C@H](C(=O)N5C[C@H](O)C[C@H]5C(=O)N[C@@H](C)c5ccc(-c6scnc6C)cc5)C(C)(C)C)CC4)cc(Cl)cc32)cc(C)c1F,38.5%,82%,182 nM,
Cc1cc(Cn2c(N3CC4(CNC4)C3)nc3c(N4CCN(CCOCCOCCOCCC(=O)N[C@H](C(=O)N5C[C@H](O)C[C@H]5C(=O)N[C@@H](C)c5ccc(-c6scnc6C)cc5)C(C)(C)C)CC4)cc(Cl)cc32)cc(C)c1F,15.4%,36.6%,,
Cc1cc(Cn2c(N3CC4(CNC4)C3)nc3c(N4CCN(CCCC(=O)NCCCC(=O)N[C@H](C(=O)N5C[C@H](O)C[C@H]5C(=O)N[C@@H](C)c5ccc(-c6scnc6C)cc5)C(C)(C)C)CC4)cc(Cl)cc32)cc(C)c1F,8%,12.7%,,
Cc1cc(Cn2c(N3CC4(CNC4)C3)nc3c(N4CCN(CCCCC(=O)NCCCC(=O)N[C@H](C(=O)N5C[C@H](O)C[C@H]5C(=O)N[C@@H](C)c5ccc(-c6scnc6C)cc5)C(C)(C)C)CC4)cc(Cl)cc32)cc(C)c1F,3.2%,0%,,
Cc1cc(Cn2c(N3CC4(CNC4)C3)nc3c(N4CCN(CCCCCCCCC(=O)N[C@H](C(=O)N5C[C@@H](O)C[C@H]5C(=O)N[C@@H](C)c5ccc(-c6scnc6C)cc5)C(C)(C)C)CC4)cc(Cl)cc32)cc(C)c1F,,,,Active
Cc1cc(Cn2c(N3CC4(CNC4)C3)nc3c(N4CCN(CCCCCCCCCCC(=O)N[C@H](C(=O)N5C[C@H](O)C[C@H]5C(=O)N[C@@H](C)c5ccc(-c6scnc6C)cc5)C(C)(C)C)CC4)cc(Cl)cc32)cc(C)c1F,31.7%,63.2%,,
Cc1cc(Cn2c(N3CC4(CNC4)C3)nc3c(N4CCN(C)CC4)cc(Cl)cc32)cc(C)c1F,,,,Active
Cc1cc(Cn2c(N3CC4(CNC4)C3)nc3c(N4CCN(CCCCCCCCCCCC(=O)N[C@H](C(=O)N5C[C@H](O)C[C@H]5C(=O)N[C@@H](C)c5ccc(-c6scnc6C)cc5)C(C)(C)C)CC4)cc(Cl)cc32)cc(C)c1F,33%,49%,,

# Second part, led by results:
Activity [1],Activity [2],DC50 [3],Compound,Activity (NCI-H358)
23.3%,24.4%,,Cc1cc(Cn2c(N3CC4(CNC4)C3)nc3c(N4CCN(CCOCCOCC(=O)N[C@H](C(=O)N5C[C@H](O)C[C@H]5C(=O)N[C@@H](C)c5ccc(-c6scnc6C)cc5)C(C)(C)C)CC4)cc(Cl)cc32)cc(C)c1F,
7%,11.2%,,Cc1cc(Cn2c(N3CC4(CNC4)C3)nc3c(N4CCN(CC5CCN(CCCC(=O)N[C@H](C(=O)N6C[C@H](O)C[C@H]6C(=O)N[C@@H](C)c6ccc(-c7scnc7C)cc6)C(C)(C)C)CC5)CC4)cc(Cl)cc32)cc(C)c1F,
30.7%,79.9%,216 nM,Cc1cc(Cn2c(N3CC4(CNC4)C3)nc3c(N4CCN(CCCCCCC(=O)N[C@H](C(=O)N5C[C@H](O)C[C@H]5C(=O)N[C@@H](C)c5ccc(-c6scnc6C)cc5)C(C)(C)C)CC4)cc(Cl)cc32)cc(C)c1F,
0%,18.3%,,Cc1cc(Cn2c(N3CC4(CNC4)C3)nc3c(N4CCN(CCC(=O)NCCCC(=O)N[C@H](C(=O)N5C[C@H](O)C[C@H]5C(=O)N[C@@H](C)c5ccc(-c6scnc6C)cc5)C(C)(C)C)CC4)cc(Cl)cc32)cc(C)c1F,
27.6%,80.9%,150 nM,Cc1cc(Cn2c(N3CC4(CNC4)C3)nc3c(N4CCN(CCCCCCCC(=O)N[C@H](C(=O)N5C[C@H](O)C[C@H]5C(=O)N[C@@H](C)c5ccc(-c6scnc6C)cc5)C(C)(C)C)CC4)cc(Cl)cc32)cc(C)c1F,
18.1%,9.4%,,Cc1cc(Cn2c(N3CC4(CNC4)C3)nc3c(N4CCN(CC5CCN(CCC(=O)N[C@H](C(=O)N6C[C@H](O)C[C@H]6C(=O)N[C@@H](C)c6ccc(-c7scnc7C)cc6)C(C)(C)C)CC5)CC4)cc(Cl)cc32)cc(C)c1F,
5.8%,30.4%,,Cc1cc(Cn2c(N3CC4(CNC4)C3)nc3c(N4CCN(CCCCCC(=O)N[C@H](C(=O)N5C[C@H](O)C[C@H]5C(=O)N[C@@H](C)c5ccc(-c6scnc6C)cc5)C(C)(C)C)CC4)cc(Cl)cc32)cc(C)c1F,
4.4%,14%,,Cc1cc(Cn2c(N3CC4(CNC4)C3)nc3c(N4CCN(CCOCCOCCC(=O)N[C@H](C(=O)N5C[C@H](O)C[C@H]5C(=O)N[C@@H](C)c5ccc(-c6scnc6C)cc5)C(C)(C)C)CC4)cc(Cl)cc32)cc(C)c1F,
13%,43.3%,,Cc1cc(Cn2c(N3CC4(CNC4)C3)nc3c(N4CCN(CC5CCN(CC(=O)N[C@H](C(=O)N6C[C@H](O)C[C@H]6C(=O)N[C@@H](C)c6ccc(-c7scnc7C)cc6)C(C)(C)C)CC5)CC4)cc(Cl)cc32)cc(C)c1F,

# Reference: ChEMBL document CHEMBL5154769, “Discovery of the First-in-Class Agonist-Based SOS1 PROTACs Effective in Human Cancer Cells Harboring Various KRAS Mutations” (J Med Chem, 2022)
